Measured values published in article PMC2267855, “Site-directed mutagenesis of Arginine282 suggests how protons and peptides are co-transported by rabbit PepT1” (The International Journal of Biochemistry & Cell Biology, 2008).
Where a SMILES comes first, the peptide text is derived from it.

Assays:
wild-type PepT1 = target: T1, wild-type PepT1 (Oryctolagus cuniculus, UniProt P36836); experiment: Accumulation of [3H]-D-Phe-L-Gln above the extracellular concentration by oocytes expressing wild-type PepT1; type: cell-based, rabbit
T1 construct: expressed in transfected cells; host or cells: Xenopus laevis oocytes injected with cRNA
T1 sequence (P36836 1-707): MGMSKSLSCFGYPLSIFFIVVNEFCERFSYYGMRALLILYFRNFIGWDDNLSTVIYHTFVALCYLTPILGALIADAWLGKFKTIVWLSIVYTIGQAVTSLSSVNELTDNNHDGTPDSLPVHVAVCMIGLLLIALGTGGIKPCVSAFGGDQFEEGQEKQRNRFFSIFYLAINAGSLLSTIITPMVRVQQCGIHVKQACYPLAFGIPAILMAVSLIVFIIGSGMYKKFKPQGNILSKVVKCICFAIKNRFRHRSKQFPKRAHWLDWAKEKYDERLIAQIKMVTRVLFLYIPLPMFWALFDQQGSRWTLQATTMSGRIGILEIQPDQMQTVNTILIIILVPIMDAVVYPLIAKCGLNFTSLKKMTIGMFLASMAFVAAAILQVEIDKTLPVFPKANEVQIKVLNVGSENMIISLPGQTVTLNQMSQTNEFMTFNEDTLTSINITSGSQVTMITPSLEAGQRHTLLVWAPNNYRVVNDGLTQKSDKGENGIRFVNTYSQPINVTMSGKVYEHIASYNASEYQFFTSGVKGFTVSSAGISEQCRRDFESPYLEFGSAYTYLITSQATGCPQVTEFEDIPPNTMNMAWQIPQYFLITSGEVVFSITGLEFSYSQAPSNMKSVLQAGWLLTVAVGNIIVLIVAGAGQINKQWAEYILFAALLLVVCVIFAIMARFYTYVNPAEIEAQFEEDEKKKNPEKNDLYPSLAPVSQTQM
Experimental: (§1) Zero-trans uptake of [^3H]-D-Phe-L-Gln (17.4 Ci/mmole, custom synthesised, Cambridge Research Biochemicals, Stockton-on-Tees, UK) was performed as previously described ([Meredith, 2004]). Briefly, 5 oocytes were incubated in 100 μl of uptake medium (95 mM NaCl, 2 mM KCl, 1 mM CaCl2, 0.42 mM MgCl2, 10 mM Tris/Hepes pH 7.4 or Tris/Mes pH 5.5) with tracer (0.4 μM) [^3H]-D-Phe-L-Gln. After incubation, the oocytes were washed sequentially five times in 1 ml of ice-cold 120 mM NaCl solution, lysed individually with 100 μl 2% (w/v) SDS and liquid scintillation counted. As a control non-injected oocytes were also incubated in uptake medium with [^3H]-D-Phe-L-Gln as above.

wild-type rabbit PepT1 = target: T2, wild-type rabbit PepT1 (Oryctolagus cuniculus, UniProt P36836); experiment: Inhibition of [3H]-D-Phe-L-Gln uptake into Xenopus oocytes expressing wild-type PepT1 (competition, Ki); type: cell-based; conditions: wild-type PepT1, pHout 5.5, 0.4 μM [3H]-D-Phe-L-Gln, Xenopus oocytes; read-out: Ki (inhibition of [3H]-D-Phe-L-Gln uptake)
T2 construct: expressed in transfected cells; host or cells: Xenopus laevis oocytes injected with cRNA
T2 sequence (P36836 1-707): T1 sequence (P36836 1-707)
Experimental: as §1
The affinity of wild-type and mutant PepT1 were assessed by competition studies with 0.4 μM [^3H]-D-Phe-L-Gln and Gly-L-Gln present in the uptake medium in concentrations from 0 to 2 mM using the protocol above, and the Ki calculated using the method of [Deves and Boyd (1989)].

Structure (SMILES) | accumulation above extracellular concentration (wild-type PepT1; third comparison, printed as wild-type PepT1 at pHout 7.4, 8 h incubation) | accumulation above extracellular concentration (wild-type PepT1; third comparison, printed as wild-type PepT1 at pHout 7.4, 24 h incubation) | accumulation above extracellular concentration (wild-type PepT1; wild-type PepT1, pHout 5.5, 8 h incubation) | accumulation above extracellular concentration (wild-type PepT1; wild-type PepT1, pHout 5.5, 24 h incubation) | accumulation above extracellular concentration (wild-type PepT1; wild-type PepT1, pHout 7.4, 8 h incubation) | accumulation above extracellular concentration (wild-type PepT1; wild-type PepT1, pHout 7.4, 24 h incubation) | Ki (wild-type rabbit PepT1) [µM]
NC(=O)CC[C@H](NC(=O)[C@H](N)Cc1ccccc1)C(=O)O [D-Phe-L-Gln] | 1.0 ± 0.4 | 1.5 ± 0.3 | 8.0 ± 1.4 | 8.3 ± 1.0 | 2.5 ± 0.5 | 3.1 ± 0.5 -fold | 
NCC(=O)N[C@@H](CCC(N)=O)C(=O)O [Gly-L-Gln] (H-Gly-Gln-OH) |  |  |  |  |  |  | 390 ± 220
